Experimental findings from ChEMBL document CHEMBL2146430, “Rational evolution of a novel type of potent and selective proviral integration site in Moloney murine leukemia virus kinase 1 (PIM1) inhibitor from a screening-hit compound” (J Med Chem, 2012) are described below.

For series [1], the target named is T1, Serine/threonine-protein kinase pim-1 (Homo sapiens, UniProt P11309). Kind of series: Inhibition of PIM1 using 5-FAM-RSRHSSYPAGT-CONH2 as substrate after 2 hrs by electrophoretic mobility shift assay. A general note: Mobility shift assays separate free from complexed probe on a gel.
Target sequence in this assay (P11309 whole entry): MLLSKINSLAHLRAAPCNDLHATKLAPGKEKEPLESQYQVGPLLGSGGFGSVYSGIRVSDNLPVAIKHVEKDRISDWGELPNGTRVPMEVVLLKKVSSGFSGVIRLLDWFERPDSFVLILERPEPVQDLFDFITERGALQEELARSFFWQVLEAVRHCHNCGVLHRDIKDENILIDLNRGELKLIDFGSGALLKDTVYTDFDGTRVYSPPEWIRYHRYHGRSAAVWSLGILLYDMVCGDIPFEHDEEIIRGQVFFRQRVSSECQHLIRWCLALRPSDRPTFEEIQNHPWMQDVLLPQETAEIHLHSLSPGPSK
Series [2] deals with Receptor-type tyrosine-protein kinase FLT3 (Homo sapiens) (UniProt P36888). In words: Inhibition of FLT3 at 600 nM by electrophoretic mobility shift assay.
The target in series [3] is T2, Serine/threonine-protein kinase pim-3 (Homo sapiens, UniProt Q86V86). Kind of series: Inhibition of PIM3 at 600 nM by electrophoretic mobility shift assay.
Series [4] has as its target T1, Serine/threonine-protein kinase pim-1. Kind of series: Inhibition of PIM1 at 600 nM by electrophoretic mobility shift assay.
Target sequence in this assay (P11309 whole entry, looked up): as the sequence (P11309 whole entry) above
The test system of series [5] is MV4-11. Kind of series: Growth inhibition of human MV4-11 cells after 48 hrs. Conditions: MV4-11, 48 h. The class given is functional.
For series [6], the target named is T3, Serine/threonine-protein kinase pim-2 (Homo sapiens, UniProt Q9P1W9). In words: Inhibition of PIM2 at 600 nM by electrophoretic mobility shift assay.
Target sequence in this assay (Q9P1W9 whole entry, looked up): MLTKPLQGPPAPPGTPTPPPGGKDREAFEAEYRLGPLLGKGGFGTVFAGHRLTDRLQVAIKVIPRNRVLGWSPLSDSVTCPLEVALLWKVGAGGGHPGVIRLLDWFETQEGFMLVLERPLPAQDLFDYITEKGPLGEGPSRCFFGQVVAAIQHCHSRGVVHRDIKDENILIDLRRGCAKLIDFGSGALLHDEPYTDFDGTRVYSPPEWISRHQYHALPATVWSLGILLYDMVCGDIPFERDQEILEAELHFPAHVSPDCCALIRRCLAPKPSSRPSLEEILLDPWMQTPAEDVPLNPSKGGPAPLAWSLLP
The target of series [7] is Platelet-derived growth factor receptor alpha (Homo sapiens) (UniProt P16234). In words: Inhibition of PDGFRalpha at 600 nM by electrophoretic mobility shift assay.
Series [8] can be described thus: Metabolic stability in mouse liver microsomes assessed as compound remaining at 1 uM after 1 hr. The class given is ADME, Microsome. Particulars: read-out: Stability.
Series [9] deals with Tyrosine-protein kinase SYK (Homo sapiens) (UniProt P43405). In words: Inhibition of SYK at 600 nM by electrophoretic mobility shift assay.
The nature of series [10]: Metabolic stability in human liver microsomes assessed as compound remaining at 1 uM after 1 hr. The class given is ADME, Microsome. Conditions: read-out: Stability. (Microsomes from liver hold many membrane-bound enzymes, among them those of drug oxidation.)
In series [11] the target is T3, Serine/threonine-protein kinase pim-2. Conditions: 250 nM.
Target sequence in this assay (Q9P1W9 whole entry, looked up): as above
Description: Inhibition of PIM2 at 250 nM by electrophoretic mobility shift assay
The target in series [12] is T2, Serine/threonine-protein kinase pim-3. Particulars: 250 nM.
Description: Inhibition of PIM3 at 250 nM by electrophoretic mobility shift assay
Series [13] addresses Death-associated protein kinase 1 (Homo sapiens) (UniProt P53355). In words: Inhibition of DAPK1 at 200 nM by electrophoretic mobility shift assay.
The target in series [14] is Rho-associated protein kinase 1 (Homo sapiens) (UniProt Q13464). In words: Inhibition of ROCK1 at 200 nM by electrophoretic mobility shift assay.
For series [15], the target named is T3, Serine/threonine-protein kinase pim-2. In words: Inhibition of PIM2 at 200 nM by electrophoretic mobility shift assay.
Target sequence in this assay (Q9P1W9 whole entry, looked up): as the sequence (Q9P1W9 whole entry, looked up) above
Series [16] concerns the target Platelet-derived growth factor receptor alpha (Homo sapiens) (UniProt P16234). Kind of series: Inhibition of PDGFRalpha at 200 nM by electrophoretic mobility shift assay.
The target in series [17] is T2, Serine/threonine-protein kinase pim-3. In words: Inhibition of PIM3 at 200 nM by electrophoretic mobility shift assay.
Series [18] addresses T1, Serine/threonine-protein kinase pim-1. Kind of series: Inhibition of PIM1 at 200 nM by electrophoretic mobility shift assay.
Target sequence in this assay (P11309 whole entry, looked up): as the sequence (P11309 whole entry) above
Series [19] has as its target Receptor-type tyrosine-protein kinase FLT3 (Homo sapiens) (UniProt P36888). In words: Inhibition of FLT3 at 200 nM by electrophoretic mobility shift assay.
Series [20] has as its target Protein kinase C alpha type (Homo sapiens) (UniProt P17252). In words: Inhibition of PKCalpha at 200 nM by electrophoretic mobility shift assay.
Series [21] concerns the target Glycogen synthase kinase-3 beta (Homo sapiens) (UniProt P49841). Kind of series: Inhibition of GSK3beta at 200 nM by electrophoretic mobility shift assay.
For series [22], the target named is Serine/threonine-protein kinase D2 (Homo sapiens) (UniProt Q9BZL6). Kind of series: Inhibition of PKD2 at 200 nM by electrophoretic mobility shift assay.
Series [23] has as its target T4, hERG (KCNH2) (Homo sapiens, UniProt Q12809). In words: Inhibition of human ERG at 10 uM by patch clamp assay. (In general: Patch clamp records ionic current or voltage across a cell membrane.)
In series [24] the target is T2, Serine/threonine-protein kinase pim-3. In words: Inhibition of PIM3 by electrophoretic mobility shift assay.
A further series concerns the target CYP2D6 (Homo sapiens, UniProt P10635). Kind of series: Inhibition of CYP2D6 at 10 uM. Format: ADME.
Series [25] concerns the target Receptor-type tyrosine-protein kinase FLT3 (Homo sapiens) (UniProt P36888). Kind of series: Inhibition of FLT3 at 300 nM by electrophoretic mobility shift assay.
For series [26], the target named is T3, Serine/threonine-protein kinase pim-2. In words: Inhibition of PIM2 at 300 nM by electrophoretic mobility shift assay.
Target sequence in this assay (Q9P1W9 whole entry, looked up): as the sequence (Q9P1W9 whole entry, looked up) above
The next series deals with CYP2C19 (Homo sapiens, UniProt P33261). Kind of series: Inhibition of CYP2C19 at 10 uM. The class given is ADME.
The target of series [27] is Receptor-type tyrosine-protein kinase FLT3 (Homo sapiens, UniProt P36888). Kind of series: Inhibition of FLT3 by electrophoretic mobility shift assay.
In series [28] the test system is MV4-11. In words: Induction of apoptosis in human MV4-11 cells after 48 hrs by annexin V/propidium iodide staining based flow cytometric analysis. Format: functional, cell-based.
A further series addresses CYP3A4 (Homo sapiens, UniProt P08684). Kind of series: Inhibition of CYP3A4 at 10 uM. Format: ADME.
The target of series [29] is T4, hERG (KCNH2). In words: Inhibition of human ERG at 1 uM by patch clamp assay.
Series [30] concerns the target T1, Serine/threonine-protein kinase pim-1. In words: Inhibition of PIM1 by electrophoretic mobility shift assay.
Target sequence in this assay (P11309 whole entry): as the sequence (P11309 whole entry) above
Series [31] is described as follows: Metabolic stability in mouse hepatocytes assessed as compound remaining at 1 uM after 2 hrs. The class given is ADME, cell-based, Hepatocyte. Conditions: read-out: Stability.
In series [32] the target is T1, Serine/threonine-protein kinase pim-1. Particulars: 300 nM.
Target sequence in this assay (P11309 whole entry, looked up): as the sequence (P11309 whole entry) above
Description: Inhibition of PIM1 at 300 nM by electrophoretic mobility shift assay
Series [33] has the same target. Particulars: MV4-11, 0.01 to 10 uM.
Target sequence in this assay (P11309 whole entry, looked up): as the sequence (P11309 whole entry) above
Description: Inhibition of PIM1-mediated BAD phosphorylation at ser136 in human MV4-11 cells at 0.01 to 10 uM after 1 hr by Western blotting
A further series concerns the target CYP2C9 (Homo sapiens, UniProt P11712). Kind of series: Inhibition of CYP2C9 at 10 uM. Format: ADME.
For a further series, the target named is CYP1A2 (Homo sapiens, UniProt P05177). Kind of series: Inhibition of CYP1A2 at 10 uM. Format: ADME.
The next series relates to WI-38. In words: Growth inhibition of human WI38 cells after 48 hrs. Format: cell-based. Conditions: wi-38, 48 h.
Series [34] addresses T3, Serine/threonine-protein kinase pim-2. In words: Inhibition of PIM2 by electrophoretic mobility shift assay.
In series [35] the target is T2, Serine/threonine-protein kinase pim-3. In words: Inhibition of PIM3 at 300 nM by electrophoretic mobility shift assay.
The test system of series [36] is MV4-11. In words: Cell cycle arrest in human MV4-11 cells assessed as accumulation at G1 phase after 48 hrs by flow cytometry. Format: functional, cell-based.
The target of series [37] is Mitogen-activated protein kinase kinase kinase 9 (Homo sapiens) (UniProt P80192). Kind of series: Inhibition of MLK1 at 22500 nM by ELISA.
For series [38], the target named is Platelet-derived growth factor receptor alpha (Homo sapiens) (UniProt P16234). Kind of series: Inhibition of PDGFRalpha at 22500 nM by electrophoretic mobility shift assay.
Series [39] deals with T2, Serine/threonine-protein kinase pim-3. In words: Inhibition of PIM3 at 22500 nM by electrophoretic mobility shift assay.
The target in series [40] is Tyrosine-protein kinase SYK (Homo sapiens) (UniProt P43405). In words: Inhibition of SYK at 22500 nM by electrophoretic mobility shift assay.
In series [41] the target is Aurora kinase A (Homo sapiens) (UniProt O14965). Kind of series: Inhibition of Aurora A at 22500 nM by electrophoretic mobility shift assay.
Series [42] addresses T1, Serine/threonine-protein kinase pim-1. Kind of series: Inhibition of PIM1 at 22500 nM by electrophoretic mobility shift assay.
Target sequence in this assay (P11309 whole entry, looked up): as the sequence (P11309 whole entry) above
The target of series [43] is Glycogen synthase kinase-3 beta (Homo sapiens) (UniProt P49841). In words: Inhibition of GSK3beta at 22500 nM by electrophoretic mobility shift assay.
Series [44] deals with T3, Serine/threonine-protein kinase pim-2. In words: Inhibition of PIM2 at 22500 nM by electrophoretic mobility shift assay.
Target sequence in this assay (Q9P1W9 whole entry, looked up): as the sequence (Q9P1W9 whole entry, looked up) above
Series [45] concerns the target Epidermal growth factor receptor (Homo sapiens) (UniProt P00533). In words: Inhibition of EGFR at 22500 nM by electrophoretic mobility shift assay.
Series [46] deals with Serine/threonine-protein kinase 4 (Homo sapiens) (UniProt Q13043). In words: Inhibition of MST1 at 22500 nM by electrophoretic mobility shift assay.
Series [47] has as its target Vascular endothelial growth factor receptor 2 (Homo sapiens) (UniProt P35968). Kind of series: Inhibition of KDR at 22500 nM by electrophoretic mobility shift assay.
The target in series [48] is Receptor-type tyrosine-protein kinase FLT3 (Homo sapiens) (UniProt P36888). Kind of series: Inhibition of FLT3 at 22500 nM by electrophoretic mobility shift assay.

Calls of active or inactive are those of the source. The calls are words filed in the database; no cut-off is given here. Bounds are passed on as bounds.

A word on the IC50: it is the concentration that gives 50% inhibition. One may read the inhibition as the relative decrease from the control value, in per cent. A word on the GI50: it is the concentration at which growth is held to half of that of the control. A low value points to greater sensitivity of the cells.

Platelet-derived growth factor receptor alpha (Homo sapiens), sequence (P16234 whole entry): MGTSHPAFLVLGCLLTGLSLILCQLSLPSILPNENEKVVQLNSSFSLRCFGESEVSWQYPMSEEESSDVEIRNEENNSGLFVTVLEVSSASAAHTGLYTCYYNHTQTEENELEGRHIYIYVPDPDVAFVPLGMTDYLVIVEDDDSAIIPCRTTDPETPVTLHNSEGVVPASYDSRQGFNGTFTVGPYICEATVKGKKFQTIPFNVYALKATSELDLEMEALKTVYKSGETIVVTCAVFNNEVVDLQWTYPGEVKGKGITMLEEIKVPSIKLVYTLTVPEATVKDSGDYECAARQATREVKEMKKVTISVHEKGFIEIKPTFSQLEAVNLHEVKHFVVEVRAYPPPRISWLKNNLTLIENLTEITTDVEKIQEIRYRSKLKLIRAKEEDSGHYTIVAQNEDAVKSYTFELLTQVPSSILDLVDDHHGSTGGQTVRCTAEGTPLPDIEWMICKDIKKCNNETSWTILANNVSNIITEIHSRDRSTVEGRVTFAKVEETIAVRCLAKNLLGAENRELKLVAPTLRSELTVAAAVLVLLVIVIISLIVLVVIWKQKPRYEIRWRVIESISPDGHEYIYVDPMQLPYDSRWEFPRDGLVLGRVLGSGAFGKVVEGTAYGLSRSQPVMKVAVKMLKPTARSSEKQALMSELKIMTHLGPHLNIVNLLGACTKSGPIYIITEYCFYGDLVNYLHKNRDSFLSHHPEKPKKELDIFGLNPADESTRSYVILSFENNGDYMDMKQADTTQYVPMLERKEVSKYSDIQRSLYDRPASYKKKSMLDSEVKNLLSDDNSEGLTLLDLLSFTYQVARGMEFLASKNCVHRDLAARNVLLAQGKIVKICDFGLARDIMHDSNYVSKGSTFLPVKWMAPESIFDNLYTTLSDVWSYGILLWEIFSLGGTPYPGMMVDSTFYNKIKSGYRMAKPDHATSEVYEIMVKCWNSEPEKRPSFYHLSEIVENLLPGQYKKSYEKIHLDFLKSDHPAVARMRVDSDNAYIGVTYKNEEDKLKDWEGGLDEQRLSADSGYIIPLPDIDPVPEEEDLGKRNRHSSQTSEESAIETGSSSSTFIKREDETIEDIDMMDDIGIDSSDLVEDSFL
Receptor-type tyrosine-protein kinase FLT3 (Homo sapiens), sequence (P36888 whole entry): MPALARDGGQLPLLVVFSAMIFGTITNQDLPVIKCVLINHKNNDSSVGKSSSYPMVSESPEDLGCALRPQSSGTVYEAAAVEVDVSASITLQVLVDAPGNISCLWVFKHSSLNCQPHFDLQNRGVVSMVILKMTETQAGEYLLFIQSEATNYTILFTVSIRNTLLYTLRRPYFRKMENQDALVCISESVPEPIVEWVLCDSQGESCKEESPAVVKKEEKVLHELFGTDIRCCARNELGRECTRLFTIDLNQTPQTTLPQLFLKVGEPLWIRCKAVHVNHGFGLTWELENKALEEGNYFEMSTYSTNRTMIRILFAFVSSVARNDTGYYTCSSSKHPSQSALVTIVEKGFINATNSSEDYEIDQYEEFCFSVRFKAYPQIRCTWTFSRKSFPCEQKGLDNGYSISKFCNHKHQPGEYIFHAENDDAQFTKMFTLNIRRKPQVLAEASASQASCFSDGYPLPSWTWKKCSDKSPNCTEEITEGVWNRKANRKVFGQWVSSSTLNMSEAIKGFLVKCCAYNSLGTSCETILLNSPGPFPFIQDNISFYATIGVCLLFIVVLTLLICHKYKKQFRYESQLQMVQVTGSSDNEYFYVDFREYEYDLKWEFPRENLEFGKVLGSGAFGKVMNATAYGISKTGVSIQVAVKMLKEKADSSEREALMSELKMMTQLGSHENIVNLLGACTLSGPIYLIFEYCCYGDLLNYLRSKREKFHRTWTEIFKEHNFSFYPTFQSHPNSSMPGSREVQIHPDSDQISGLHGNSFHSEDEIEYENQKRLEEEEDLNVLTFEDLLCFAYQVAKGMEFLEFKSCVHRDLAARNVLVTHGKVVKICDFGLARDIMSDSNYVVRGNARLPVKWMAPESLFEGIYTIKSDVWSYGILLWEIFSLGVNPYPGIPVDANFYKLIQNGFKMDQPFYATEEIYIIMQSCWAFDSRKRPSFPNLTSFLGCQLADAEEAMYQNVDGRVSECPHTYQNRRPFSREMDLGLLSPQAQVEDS
T4 sequence (Q12809 whole entry): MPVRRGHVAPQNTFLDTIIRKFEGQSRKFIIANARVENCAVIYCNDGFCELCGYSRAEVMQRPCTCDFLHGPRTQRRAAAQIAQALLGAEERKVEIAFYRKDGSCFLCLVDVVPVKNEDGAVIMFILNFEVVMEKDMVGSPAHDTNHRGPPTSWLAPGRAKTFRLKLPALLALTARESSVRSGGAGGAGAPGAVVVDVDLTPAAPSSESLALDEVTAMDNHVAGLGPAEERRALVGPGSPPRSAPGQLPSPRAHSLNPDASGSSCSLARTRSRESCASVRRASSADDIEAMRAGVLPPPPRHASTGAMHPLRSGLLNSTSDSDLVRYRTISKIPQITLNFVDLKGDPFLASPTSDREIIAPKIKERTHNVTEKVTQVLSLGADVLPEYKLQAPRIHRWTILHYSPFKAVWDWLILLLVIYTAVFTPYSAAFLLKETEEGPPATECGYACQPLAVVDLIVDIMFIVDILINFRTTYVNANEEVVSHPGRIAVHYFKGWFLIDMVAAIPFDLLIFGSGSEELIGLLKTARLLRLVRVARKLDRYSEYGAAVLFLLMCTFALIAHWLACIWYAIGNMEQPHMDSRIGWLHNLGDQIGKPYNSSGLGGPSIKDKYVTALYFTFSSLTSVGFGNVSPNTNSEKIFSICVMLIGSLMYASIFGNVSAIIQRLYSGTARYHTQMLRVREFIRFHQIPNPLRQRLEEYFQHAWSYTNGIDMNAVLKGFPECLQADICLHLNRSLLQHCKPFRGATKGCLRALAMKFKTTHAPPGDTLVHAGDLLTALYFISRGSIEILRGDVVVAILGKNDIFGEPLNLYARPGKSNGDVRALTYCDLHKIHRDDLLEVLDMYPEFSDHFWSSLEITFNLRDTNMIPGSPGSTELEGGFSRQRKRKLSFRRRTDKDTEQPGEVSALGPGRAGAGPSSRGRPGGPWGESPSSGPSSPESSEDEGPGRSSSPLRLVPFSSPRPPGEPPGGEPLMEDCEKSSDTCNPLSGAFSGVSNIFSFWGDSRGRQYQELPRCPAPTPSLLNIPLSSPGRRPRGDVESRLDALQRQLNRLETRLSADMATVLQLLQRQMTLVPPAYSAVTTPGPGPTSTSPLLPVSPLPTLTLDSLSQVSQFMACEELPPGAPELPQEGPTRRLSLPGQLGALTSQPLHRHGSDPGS

Consider `CCCOc1ccc2c(c1CN1CCNCC1)O/C(=C\c1c[nH]c3ccccc13)C2=O`, for which the IC50 in [1] was 12 nM.

For the compound `CCOc1ccc2c(c1CN1CCNCC1)O/C(=C\c1c[nH]c3ccccc13)C2=O`, the IC50 in series [1] worked out at 6 nM.

For the compound `O=C1/C(=C/c2c[nH]c3ccccc23)Oc2c1ccc(O)c2CN1CCCNCC1`, the IC50 in series [1] came to 102 nM.

For the compound `O=C1/C(=C/c2c[nH]c3ccccc23)Oc2c1ccc(O)c2CN1CCNCC1`, the inhibition result in series [2], in series [7] and in series [9] was “Active” in each case. For the same compound, in series [1], the IC50 was 17 nM. The inhibition was found to be 97% in [3], 98% in [4] and 30% in series [6]. In addition, the GI50 in the series on MV4-11 [5] is 270 nM. The results for the remaining at 1 h, 1 µM in [8] and in series [10] were 71% and 90%, respectively.

The compound `COc1ccc2c(c1CN1CCNCC1)O/C(=C\c1c[nH]c3ccccc13)C2=O` came in with a GI50 in the series with MV4-11 [5] of 95 nM. The inhibition was found to be 30% in series [11] and 98% in series [12]. Besides, the remaining at 1 h, 1 µM is 86% in [8] and 82% in series [10].

Turning to `O=C1/C(=C/c2c[nH]c3ccccc23)Oc2c(CN3CCNCC3)cccc21`, the IC50 in [1] is 20 nM.

Consider `COc1ccc2c(c1CN1CCNCC1)O/C(=C\c1c[nH]c3ccncc13)C2=O`, for which, in [1], the IC50 turned out to be 53 nM.

`O=C1/C(=C/c2c[nH]c3ccccc23)Oc2c1ccc(OCc1ccccc1)c2CN1CCNCC1`: the IC50 in series [1] was 43 nM.

On to `COc1ccc2c(c1CN1CCNCC1)O/C(=C\c1c[nH]c3ncccc13)C2=O`, for which the inhibition result in series [13], in series [14], in series [16], in [19], in series [20] and in series [21] was “Active” in each case. In addition, the inhibition result in [22] is “Active”. The figures for the inhibition in series [15], in series [17] and in [18] were 39%, 99% and over 99%, respectively. Further, the IC50 in series [1] came out at 2 nM.

As for `CN1CCN(Cc2c(O)ccc3c2O/C(=C\c2c[nH]c4ccccc24)C3=O)CC1`, the IC50 in series [1] is 388 nM.

With `COc1ccc2c(c1CN1CCNCC1)O/C(=C\c1n[nH]c3ccccc13)C2=O`, the inhibition at 10 µM at hERG (KCNH2) [23] was 60%; against CYP2D6, 11%; at CYP2C19 it was 54%; against CYP3A4, 10%; on CYP2C9, under 1%; against CYP1A2 it was 33%. The IC50 in series [24] worked out at 13 nM; in series [27], 47 nM; in series [1], 3 nM; in [30], 6 nM; in series [34], 1160 nM. For the same compound, in series [25], the inhibition entry is “Active”. The values for the inhibition in series [26], in series [32] and in series [35] were 19%, 99% and 98%, respectively. The Activity result in the series on MV4-11 [28] is “Dose-dependent effect”; in the series on WI-38, “Non-toxic”; in the series on MV4-11 [36] it was “Dose-dependent effect”. At 1 µM the inhibition against hERG (KCNH2) [29] was 13%. Further, the remaining at 2 h, 1 µM in [31] was determined as 89%. Moreover, in the series with MV4-11 [5], the GI50 was 43 nM. Moreover, the inhibition result in [33] is “inactive”. The remaining at 1 h, 1 µM in series [8] was 92%; in series [10], over 99%.

Turning to `COc1ccc2c(c1CN1CCNCC1)O/C(=C\c1c[nH]c3cccnc13)C2=O`, the IC50 in [1] was found to be 447 nM.

For the compound `O=C1/C(=C/c2c[nH]c3ccccc23)Oc2c1ccc(O)c2CN1CCCCCC1`, the inhibition entry in series [37], in series [38], in series [40], in series [41], in series [43] and in series [45] was “Active” in each case. In addition, the inhibition result in series [46], in series [47] and in series [48] was “Active” in each case. Besides, the figures for the inhibition in series [39], in [42] and in series [44] were 88%, 77% and 46%, respectively. Besides, the IC50 in series [1] was 410 nM. The remaining at 1 h, 1 µM in series [8] is 44%; in [10], 36%.
